Tests used:
[1] = test system: Winterweizens Sorte Mironovskaya 808; assay: Field trial of gametocidal activity (anther sterilisation), winter wheat; assay type: in vivo, Weizen; conditions: 2% aqueous emulsion, 20 kg/ha; for response vs control in vivo at 20000 g/ha: control = 100, read-out: Prozentsatz des Ansetzens bei freier Bestäubung
[2] = test system: Sommerweizen Sorte Moskovskaya 35; assay: Field trial of gametocidal activity, spring wheat; assay type: in vivo, Weizen; conditions: 1% aqueous emulsion; for Anzahl von Körnern der Ähre bei freier Bestäubung / Anzahl von Körnern der Ähre im Isolator / percent sterility at 10000 g/ha / pest or weed control at 10000 g/ha: V. period; for percent sterility at 10000 g/ha / pest or weed control at 10000 g/ha: read-out: Prozentsatz der Sterilität
[3] = test system: Diploider Roggen Sorte Chulpan; assay: Field trial of gametocidal activity, diploid rye Chulpan; assay type: in vivo; conditions: single compounds, 1% aqueous emulsion, 10 kg/ha; for Anzahl von Körnern der Ähre bei freier Bestäubung / Anzahl von Körnern der Ähre im Isolator / percent sterility at 10000 g/ha: Chulpan; for Anzahl von Körnern der Ähre bei freier Bestäubung / Anzahl von Körnern der Ähre im Isolator / percent sterility at 10000 g/ha / pest or weed control at 10000 g/ha: V. or VI. period; for percent sterility at 10000 g/ha: read-out: Prozentsatz der Sterilität; for response vs control in vivo at 10000 g/ha: read-out: Prozentsatz des Ansetzens bei freier Bestäubung, Chulpan, control = 100; for pest or weed control at 10000 g/ha: read-out: Prozentsatz der Sterilität, Chulpan
Description: (§1) Bei Weizen und Tritikale werden Einzelisolatoren verwendet.
Pflanzen von diploidem Roggen Sorte Chulpan werden in der V. oder VI.
Der Verbrauch an Sterilisationsmitteln beträgt 10 kg/ha.

[4] = test system: Tetraploider Roggen Sorte Ukrainskaya tetra; assay: Field trial of gametocidal activity, tetraploid rye Ukrainskaya tetra; assay type: in vivo; conditions: 1% aqueous emulsion, 10 kg/ha, V. or VI. period
[5] = test system: Tritikale Sorte PRAG I09; assay: Field trial of gametocidal activity, triticale; assay type: in vivo; conditions: 1% aqueous emulsion, 12 kg/ha
Description: as §1
Pflanzen von Tritikale Sorte PRAG I09 werden in der V. und VI.
Der Verbrauch an Sterilisationsmittel beträgt 12 kg/ha.

[6] = test system: Hirse Sorte Mironovskoe 94; assay: Field trial of gametocidal activity, millet Mironovskoe 94; assay type: in vivo; conditions: 1% aqueous emulsion, 10 kg/ha; for Anzahl von Körnern der Rispe bei freier Bestäubung / Anzahl von Körnern der Rispe im Isolator / percent pollen sterility at 10000 g/ha / pest or weed control at 10000 g/ha: V. or VI. period; for percent pollen sterility at 10000 g/ha / pest or weed control at 10000 g/ha: read-out: Prozentsatz der Sterilität; for response vs control in vivo at 10000 g/ha: control = 100, read-out: Prozentsatz des Ansetzens bei freier Bestäubung
[7] = test system: Sonnenblume Sorte Peredovik; assay: Field trial of pollen sterilisation, sunflower Peredovik; assay type: in vivo; conditions: 0,2% aqueous emulsion, 1,2 kg/ke (so in the source)
Description: Pflanzen der Sonnenblume Sorte Peredovik werden in der V. oder VI.
Der Verbrauch an Sterilisationsmittel beträgt 1,2 kg/ke.

[8] = test system: Sonnenblume Linie VK 119; assay: Field trial of pollen sterilisation, sunflower line VK 119; conditions: 0,2% aqueous emulsion, 1,2 kg/ha
[9] = in vivo; conditions: rat
[10] = test system: Diploider Roggen Sorte Gibrid 340/65; assay: Field trial of gametocidal activity, diploid rye Gibrid 340/65; conditions: Gibrid 340/65 (text: 312/65), 1% aqueous emulsion, 10 kg/ha
[11] = test system: Tetraploider Roggen Sorte Gibrid 67; assay: Field trial of gametocidal activity, tetraploid rye Gibrid 67; assay type: in vivo; conditions: 1% aqueous emulsion, 10 kg/ha
Description: as §1
Pflanzen von tetraploidem Roggen Sorte Gibrid 67 werden in der V. oder VI.

[12] = in vivo; conditions: mouse, LD50, weisse Mäuse
[13] = test system: Roggen Sorte Voskhod 2; assay: Field trial of gametocidal activity, diploid rye Voskhod 2; assay type: in vivo; conditions: 1% aqueous emulsion, 8 kg/ha
[14] = test system: Tetraploider Roggen Sorte Belta; assay: Field trial of gametocidal activity, tetraploid rye Belta; assay type: in vivo; conditions: 1% aqueous emulsion, 10 kg/ha
[15] = test system: Tetraploider Roggen Sorte Jubileinaya; assay: Field trial of gametocidal activity, tetraploid rye Jubileinaya; conditions: 1% aqueous emulsion, 10 kg/ha
[16] = test system: weisse Mäuse; conditions: weisse Mäuse; listed as Diäthanolaminsalz der o-Fluarbenzoesäure
[17] = V. or VI. period of organogenesis
[18] = V. or VI. period of organogenesis, read-out: Prozentsatz der Sterilität
[19] = control = 100, read-out: Prozentsatz des Ansetzens bei freier Bestäubung
[20] = V. or VI. period, listed as Beispiel 74

Compound | Anzahl von Körnern der Ähre bei freier Bestäubung [1, 17] | Anzahl von Körnern der Ähre im Isolator [1, 17] | response vs control in vivo at 20000 g/ha [1] | Anzahl von Körnern der Ähre bei freier Bestäubung ([2]; 10 kg/ha) | Anzahl von Körnern der Ähre im Isolator ([2]; 10 kg/ha) | percent sterility at 10000 g/ha ([2]; 10 kg/ha) | response vs control in vivo [2, 19] | Anzahl von Körnern der Ähre bei freier Bestäubung [3] | Anzahl von Körnern der Ähre im Isolator [3] | percent sterility at 10000 g/ha [3] | response vs control in vivo at 10000 g/ha [3] | Anzahl von Körnern der Rispe bei freier Bestäubung [6] | Anzahl von Körnern der Rispe im Isolator [6] | percent pollen sterility at 10000 g/ha [6] | response vs control in vivo at 10000 g/ha [6] | Pollensterilität in % [7] | Ansetzen von Achänen im Isolator bei der Bestäubung mit dem Pollengemisch in % ([7]; V. or VI. period) | Ansetzen von Achänen bei freier Bestäubung in % [8] | Ansetzen von Achänen im Isolator bei der Bestäubung mit dem Pollengemisch in % [8] | Pollensterilität in % [8] | also measured
OCC(O)COc1ccc(Cl)cc1 (centres unmarked) [Beispiel 3, 3-(4'-Chlorphenoxy)-propandiol-1,2] | 28,6 | 0,6 | 70.6% | 25,8 | 0,0 | 100% | 93.8% | 47,2 | 0,0 | 100% | 83.2% | 284,7 | 0,0 | 100% | 75% | 100% | 0,0% | 84,4% | 0,0% | 100% | percent sterility at 20000 g/ha [1, 18]: 98.4%; Anzahl von Körnern der Ähre bei freier Bestäubung [4]: 40,7; Anzahl von Körnern der Ähre im Isolator [4]: 0,0; Anzahl von Körnern der Ähre im Isolator ([5]; V. and VI. period): 0,0; Prozentsatz des Ansetzens bei freier Bestäubung ([5]; control = 100): 89,0%; Ansetzen von Achänen bei freier Bestäubung in % ([7]; V. or VI. period): 81,7%
CC(C)OC(=S)S [Beispiel 5, Kaliumisopropylxanthogenat] | 35,2 | 2,3 | 86.2% | 24,9 | 2,3 |  | 90.5% | 51,8 | 0,3 |  | 91.4% | 288,6 | 0,0 |  | 76% | 100% | 0,0% | 85,3% | 0,0% | 100% | pest or weed control at 20000 g/ha [1, 18]: 93.7%; pest or weed control at 10000 g/ha ([2]; 10 kg/ha): 91.5%; pest or weed control at 10000 g/ha [3]: 99.4%; pest or weed control at 10000 g/ha [6]: 100%; LD50 [9]: 760 mg/kg; Anzahl von Körnern der Ähre bei freier Bestäubung ([10]; V. and VI. periods): 44,8; Anzahl von Körnern der Ähre im Isolator ([10]; V. and VI. periods): 0,0; Prozentsatz der Sterilität ([10]; V. and VI. periods): 100%; Prozentsatz des Ansetzens bei freier Bestäubung ([10]; control = 100): 83,5%
OCC(O)CSc1ccccc1F (centres unmarked) [Beispiel 7, 3-(2'-Fluorphenylthio)-propandiol-I,2] | 36,7 | 0,0 | 90.6% | 24,6 | 0,0 | 100% | 89.5% | 53,4 | 0,6 | 98.8% | 94.2% | 300,5 | 0,0 | 100% | 79.2% |  |  |  |  |  | Anzahl von Körnern der Ähre bei freier Bestäubung ([11]; V. or VI. period): 42,2; Anzahl von Körnern der Ähre im Isolator ([11]; V. or VI. period): 0,0; Prozentsatz des Ansetzens bei freier Bestäubung ([11]; control = 100): 94,4%; LD50 [12]: 400 mg/kg
OCC(O)COc1ccccc1F (centres unmarked) [Beispiel 21, 3-(2'-Fluorophenoxy)-propandiol-1,2] |  |  |  | 26,2 | 0,1 | 99.9% |  |  |  |  |  | 307,5 | 0,0 | 100% | 81% |  |  |  |  |  | response vs control in vivo at 10000 g/ha ([2]; 10 kg/ha, control = 100, read-out: Prozentsatz des Ansetzens bei freier Bestäubung): 95.3%; Anzahl von Körnern der Ähre bei freier Bestäubung ([13]; V. or VI. period): 46,8; Anzahl von Körnern der Ähre im Isolator ([13]; V. or VI. period): 0,3; Prozentsatz der Sterilität ([13]; V. or VI. period): 99,4%; Prozentsatz des Ansetzens bei freier Bestäubung ([13]; control = 100): 85,7%; Anzahl von Körnern der Ähre bei freier Bestäubung ([14]; V. or VI. period): 40,7; Anzahl von Körnern der Ähre im Isolator ([14]; V. or VI. period): 0,0; Anzahl von Körnern der Ähre im Isolator ([15]; V. or VI. period): 0,0; Prozentsatz des Ansetzens bei freier Bestäubung ([15]; control = 100): 97,5%
O=C(O)c1ccccc1F [Beispiel 24, Diätha- nolaminat der o-Fluorbenzoesäure] |  |  |  | 27,1 | 2,2 |  | 98.5% |  |  |  | 95.2% | 348,6 | 0,0 |  | 91.2% |  |  |  |  |  | pest or weed control at 10000 g/ha ([2]; 10 kg/ha): 91.9%; Anzahl von Körnern der Ähre bei freier Bestäubung ([3]; listed as Beispiel 54): 54,0; Anzahl von Körnern der Ähre im Isolator ([3]; listed as Beispiel 54): 0,0; pest or weed control at 10000 g/ha [3]: 100%; Anzahl von Körnern der Ähre bei freier Bestäubung [14, 20]: 43,8; Anzahl von Körnern der Ähre im Isolator [14, 20]: 0,9; pest or weed control at 10000 g/ha ([14]; V. or VI. period, read-out: Prozentsatz der Sterilität): 97.8%; response vs control in vivo at 10000 g/ha [14, 19]: 98.9%; pest or weed control at 10000 g/ha [6]: 100%; LD50 [16]: 500 mg/kg Tiergewicht

— patent EP0359821A1, “METHOD OF STERILIZING PLANT ANTHERS” (priority 1988, dated 1989)
